Results as given in patent US6310091A, “Fungicidal saponin, CAY-1, and isolation thereof from Capsium species fruit” (The United States of America as represented by the …, priority 2000, dated 2001).
Where “and” joins values, the source holds several entries; their conditions need not be identical. Equal values may be shown once. Read-outs that look alike come from different tables or passages of the source.

Assays:
Assay type in all cases: cell-based
Aspergillus flavus = test: Fungicidal bioassay on nongerminated and germinating conidia of A. flavus; conditions: for activity at 2 µM / activity at 3 µM / activity at 4 µM / activity at 5 µM / activity at 7.5 µM / activity at 10 µM / activity at 1 µM / activity at 2.5 µM: read-out: Percent of Mean Control
Experimental: (§1) 1. Filamentous fungi. Filamentous fungi used in bioassays included Aspergillus flavus, A. fumigatus, A. niger, A. parasiticus and Fusarium oxysporum. The fungicidal properties of CAY-1 for the nongerminated and germinating conidia of these fungi were determined separately as described by De Lucca et al. [Med. Mycol., 36:291-298 (1998)] and De Lucca et al. [Antimicrob. Agents Chemother. 43:371-373 (1999)]. […] Two separate experiments were conducted in each medium (n=8 per medium).
(§2) A suspension of the aforementioned fungi were prepared separately in the appropriate medium. Conidia (10^4 conidia/ml) were used immediately for the nongerminated conidial assays while conidia (10^5 conidia/ml) were incubated for 7.5 hours at 30° C. to obtain germinating conidia. Serial dilutions of CAY-1 were prepared in the appropriate medium (totaling 225 μl) to which was added 25 μl of the conidial suspensions. The control consisted of 225 μl of medium and 25 μl of the conidial suspension. After mixing, the samples were incubated for 30 min (30° C.). Samples were then spread on potato dextrose agar plates which were incubated at 30° C. for 24 hours. Colonies were then enumerated.
(§3) Statistical analyses. ANOVA analyses on ranks for nonparametric data were performed for the bioassays described in this example.

Fusarium oxysporum = test: Fungicidal bioassay on nongerminated and germinating conidia of F. oxysporum
Experimental: as §1, §2, §3

Candida albicans = test: Effect on C. albicans viability (NCCLS broth dilution M-27A)
Experimental: 2. Candida albicans. The effect of CAY-1 on C. albicans viability was determined by the NCCLS methods (National Committee for Clinical Laboratory Standards, Wayne, Pa., 1997. Reference method for broth dilution antifungal susceptibility testing of yeasts. Approved standard M-27A, herein incorporated by reference).

Pneumocystis carinii = test: Effect on Pneumocystis carinii viability (ATP-driven bioluminescent assay); conditions: for activity at 10 µM / activity at 2.5 µM / activity at 5 µM / activity at 20 µM / activity at 40 µM / activity at 80 µM: read-out: Percent of Control Mean; for activity at 2.5 µM: 3.2 μg/ml; for activity at 5 µM: 6.3 μg/ml; for activity at 20 µM: 25 μg/ml; for activity at 40 µM: 50 μg/ml; for activity at 80 µM: 100 μg/ml
Experimental: 3. Pneumocystis carinii. The effect of CAY-1 on Pneumocystis carinii was determined as described previously [Cushion et al., Antimicrob. Agents Chemother., 1997, 41:379-384, herein incorporated by reference]. This assay is based on an ATP-driven bioluminescent reaction and was used to determine the concentration of CAY-1 which decreased the P. carinii ATP pools.

[1] = system: Bacillus subtilis ATCC 6051; test: Bacterial lethality; conditions: 0.5-10 μM; 37° C., 24 hrs
Experimental: (§4) 5. Bacteria. CAY-1 lethality to Escherichia coli ATCC 8739, Enterobacter agglomerans ATCC 27996, Bacillus subtilis ATCC 6051 and Staphylococcus aureus ATCC 12600 was determined by methods described earlier (De Lucca et al., Mol. cell Biochem., 1995, 151:141-148). Briefly, 24 hr bacterial cultures were washed and resuspended in 0.1 M PBS, pH 7.2, amended with 0.15 mM MgCl2 and 0.5 mM CaCl2 and adjusted to 80% transmittance (approximately 10^8 cells/ml) at 590 nm. Bacterial suspensions were mixed with PBS and CAY-1 (final concentrations: 0, 0.5, 1, 2, 4, 8, 10 μM) in sterile 96-well plates (Nunc, Roskilde, Denmark) and incubated (37° C., 24 hrs). Bioassays were performed twice for each bacteria (n=8).

[2] = system: Enterobacter agglomerans ATCC 27996; test: Bacterial lethality; conditions: 0.5-10 μM; 37° C., 24 hrs
Experimental: as §4

[3] = system: Escherichia coli ATCC 8739; test: Bacterial lethality; conditions: 0.5-10 μM; 37° C., 24 hrs
Experimental: as §4

[4] = system: Staphylococcus aureus ATCC 12600; test: Bacterial lethality; conditions: 0.5-10 μM; 37° C., 24 hrs
Experimental: as §4

[5] = Pneumocystis carinii, 24 h, Day 1
[6] = Pneumocystis carinii, 48 h, Day 2
[7] = Pneumocystis carinii, 72 h, Day 3

CC1CCC2(OC1)OC1CC3C4CCC5CC(OC6OC(CO)C(OC7OC(CO)C(O)C(OC8OC(CO)C(O)C(OC9OC(CO)C(O)C(O)C9O)C8O)C7OC7OC(CO)C(O)C(O)C7O)C(O)C6O)C(O)CC5(C)C4CCC3(C)C1C2C (centres unmarked) [CAY-1]
activity at 2 µM (Aspergillus flavus; Aspergillus flavus, 0.5 h, germinating, 1% PDB, 2.0 μM): 90.1% | activity at 3 µM (Aspergillus flavus; Aspergillus flavus, 0.5 h, germinating, 1% PDB, 3.0 μM): 74.4% | activity at 4 µM (Aspergillus flavus; Aspergillus flavus, 0.5 h, germinating, 1% PDB, 4.0 μM): 54.2% | activity at 5 µM (Aspergillus flavus; Aspergillus flavus, 0.5 h, germinating, 1% PDB, 5.0 μM): 34.9% | activity at 7.5 µM (Aspergillus flavus; Aspergillus flavus, 0.5 h, germinating, 1% PDB, 7.5 μM): 11% | activity at 10 µM (Aspergillus flavus; Aspergillus flavus, 0.5 h, germinating, 1% PDB, 10.0 μM): 8.4% | activity at 1 µM (Aspergillus flavus; Aspergillus flavus, 0.5 h, germinating, RPMI-1640, 1.0 μM): 132% | activity at 2.5 µM (Aspergillus flavus; Aspergillus flavus, 0.5 h, germinating, RPMI-1640, 2.5 μM): 145% | activity at 5 µM (Aspergillus flavus; Aspergillus flavus, 0.5 h, germinating, RPMI-1640, 5.0 μM): 62.9% | activity at 7.5 µM (Aspergillus flavus; Aspergillus flavus, 0.5 h, germinating, RPMI-1640, 7.5 μM): 14% | activity at 10 µM (Aspergillus flavus; Aspergillus flavus, 0.5 h, germinating, RPMI-1640, 10.0 μM): 9% | activity at 2 µM (Aspergillus flavus; Aspergillus flavus, 0.5 h, nongerminated, 1% PDB, 2.0 μM): 102% | activity at 3 µM (Aspergillus flavus; Aspergillus flavus, 0.5 h, nongerminated, 1% PDB, 3.0 μM): 102% | activity at 4 µM (Aspergillus flavus; Aspergillus flavus, 0.5 h, nongerminated, 1% PDB, 4.0 μM): 103% | activity at 5 µM (Aspergillus flavus; Aspergillus flavus, 0.5 h, nongerminated, 1% PDB, 5.0 μM): 104% | activity at 7.5 µM (Aspergillus flavus; Aspergillus flavus, 0.5 h, nongerminated, 1% PDB, 7.5 μM): 106% | activity at 10 µM (Aspergillus flavus; Aspergillus flavus, 0.5 h, nongerminated, 1% PDB, 10.0 μM): 108% | activity at 1 µM (Aspergillus flavus; Aspergillus flavus, 0.5 h, nongerminated, RPMI-1640, 1.0 μM): 88.6% | activity at 2.5 µM (Aspergillus flavus; Aspergillus flavus, 0.5 h, nongerminated, RPMI-1640, 2.5 μM): 92.2% | activity at 5 µM (Aspergillus flavus; Aspergillus flavus, 0.5 h, nongerminated, RPMI-1640, 5.0 μM): 91.7% | activity at 7.5 µM (Aspergillus flavus; Aspergillus flavus, 0.5 h, nongerminated, RPMI-1640, 7.5 μM): 90.7% | activity at 10 µM (Aspergillus flavus; Aspergillus flavus, 0.5 h, nongerminated, RPMI-1640, 10.0 μM): 99.2% | LD95 (concentration lethal to 95% of conidia) (Aspergillus flavus; Aspergillus flavus, 0.5 h, read-out: LD95): 12.5 µM and 15.5 µg/mL | minimal effective concentration (Aspergillus flavus; Aspergillus flavus, 0.5 h, read-out: concentration lethal to germinating conidia): 7.5 µM and 9.3 µg/mL | concentration lethal to germinating conidia (Aspergillus flavus; germinating conidia, RPMI-1640, p=0.0187): 7.5 μM and 9.3 μg/ml | Mean No. of Colonies (Aspergillus flavus; germinating, 1% PDB, 2.0 μM): 139.8 | Mean No. of Colonies (Aspergillus flavus; germinating, 1% PDB, 3.0 μM): 115.4 | Mean No. of Colonies (Aspergillus flavus; germinating, 1% PDB, 4.0 μM): 84.1 | Mean No. of Colonies (Aspergillus flavus; germinating, 1% PDB, 5.0 μM): 54.2 | Mean No. of Colonies (Aspergillus flavus; germinating, 1% PDB, 7.5 μM): 17.1 | Mean No. of Colonies (Aspergillus flavus; germinating, 1% PDB, 10.0 μM): 13.1 | Mean No. of Colonies (Aspergillus flavus; germinating, RPMI-1640, 1.0 μM): 52.6 | Mean No. of Colonies (Aspergillus flavus; germinating, RPMI-1640, 2.5 μM): 57.8 | Mean No. of Colonies (Aspergillus flavus; germinating, RPMI-1640, 5.0 μM): 25.1 | Mean No. of Colonies (Aspergillus flavus; germinating, RPMI-1640, 7.5 μM): 5.6 | Mean No. of Colonies (Aspergillus flavus; germinating, RPMI-1640, 10.0 μM): 3.6 | viability of nongerminated conidia (Aspergillus flavus; nongerminated conidia, either test medium): not affected | Mean No. of Colonies (Aspergillus flavus; nongerminated, 1% PDB, 2.0 μM): 54.4 | Mean No. of Colonies (Aspergillus flavus; nongerminated, 1% PDB, 3.0 μM): 54.8 | Mean No. of Colonies (Aspergillus flavus; nongerminated, 1% PDB, 4.0 μM): 55.2 | Mean No. of Colonies (Aspergillus flavus; nongerminated, 1% PDB, 5.0 μM): 55.7 | Mean No. of Colonies (Aspergillus flavus; nongerminated, 1% PDB, 7.5 μM): 56.9 | Mean No. of Colonies (Aspergillus flavus; nongerminated, 1% PDB, 10.0 μM): 58.0 | Mean No. of Colonies (Aspergillus flavus; nongerminated, RPMI-1640, 1.0 μM): 53.6 | Mean No. of Colonies (Aspergillus flavus; nongerminated, RPMI-1640, 2.5 μM): 55.8 | Mean No. of Colonies (Aspergillus flavus; nongerminated, RPMI-1640, 5.0 μM): 55.5 | Mean No. of Colonies (Aspergillus flavus; nongerminated, RPMI-1640, 7.5 μM): 54.9 | Mean No. of Colonies (Aspergillus flavus; nongerminated, RPMI-1640, 10.0 μM): 60.0 | activity against conidia (Fusarium oxysporum): not active | IC50 (Candida albicans): 3.1 µM and 3.8 µg/mL | IC90 (Candida albicans): 6.2 µM and 7.7 µg/mL | minimal effective concentration (Candida albicans; read-out: lowest effective level in vitro): ~3 µM | effectiveness compared with pentamidine (Pneumocystis carinii; 25 and 50 μg/ml (20.2 and 40.3 μM) vs pentamidine 10 μg/ml, 29 μM): as, or more effective, than pentamidine | IC50 (Pneumocystis carinii; Pneumocystis carinii): 11.8 µg/mL and 9.5 µM | activity at 10 µM (Pneumocystis carinii; Pneumocystis carinii, 24 h): 43.1% | activity at 2.5 µM (Pneumocystis carinii; [5]): 94.7% | activity at 5 µM (Pneumocystis carinii; [5]): 70.1% | activity at 20 µM (Pneumocystis carinii; [5]): 18% | activity at 40 µM (Pneumocystis carinii; [5]): 10% | activity at 80 µM (Pneumocystis carinii; [5]): 3.1% | killing at 10 µM (Pneumocystis carinii; Pneumocystis carinii, 48 h, read-out: P. carinii killed): ≥ 34.6% | activity at 10 µM (Pneumocystis carinii; Pneumocystis carinii, 48 h): 11.8% | activity at 2.5 µM (Pneumocystis carinii; [6]): 98.2% | activity at 5 µM (Pneumocystis carinii; [6]): 56.9% | activity at 20 µM (Pneumocystis carinii; [6]): 5.5% | activity at 40 µM (Pneumocystis carinii; [6]): 2.2% | activity at 80 µM (Pneumocystis carinii; [6]): 0.9% | killing at 40.3 µM (Pneumocystis carinii; Pneumocystis carinii, 72 h, read-out: P. carinii cells killed): 93% | activity at 10 µM (Pneumocystis carinii; Pneumocystis carinii, 72 h): 12.1% | activity at 2.5 µM (Pneumocystis carinii; [7]): 99.8% | activity at 5 µM (Pneumocystis carinii; [7]): 46.6% | activity at 20 µM (Pneumocystis carinii; [7]): 3.3% | activity at 40 µM (Pneumocystis carinii; [7]): 1% | activity at 80 µM (Pneumocystis carinii; [7]): 0.3% | minimal effective concentration (Pneumocystis carinii; Pneumocystis carinii, read-out: concentration at which lethality begins): 5 µM | minimal effective concentration (Pneumocystis carinii; Pneumocystis carinii, read-out: lowest effective level in vitro): ~5 µM | lethality to bacteria [1]: not effective | lethality to bacteria [2]: not effective | lethality to bacteria [3]: not effective | lethality to bacteria [4]: not effective
